Usually IC50 stands for the concentration that gives 50% inhibition.

Assay [1] concerns the target T1, Human Ketohexokinase (KHK-A) (Homo sapiens, UniProt P50053).
T1 construct: Recombinant Human Ketohexokinase, Met1Val298, with C terminal 6His tag; 6His (C); purchased R&D Systems 8177-HK
T1 sequence (P50053 1-298 isoform P50053-2): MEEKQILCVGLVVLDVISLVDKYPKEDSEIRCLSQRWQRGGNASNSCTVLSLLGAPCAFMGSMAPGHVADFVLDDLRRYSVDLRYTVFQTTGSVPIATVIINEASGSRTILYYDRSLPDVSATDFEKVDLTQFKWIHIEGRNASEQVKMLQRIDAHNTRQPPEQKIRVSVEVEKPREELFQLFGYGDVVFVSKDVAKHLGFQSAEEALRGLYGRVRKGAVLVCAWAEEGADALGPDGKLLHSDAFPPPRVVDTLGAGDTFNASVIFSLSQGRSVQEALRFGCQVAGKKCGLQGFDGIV
In words: Transcreener Kinase ADP2 FP assay, inhibition of human KHK-A. In kind it is biochemical. Conditions: recombinant human KHK-A 17.5 nM, 0.3 mM ATP, 7 mM fructose, 30 min pre-incubation, 60 min at 30° C. The protocol:
The following materials and methods were used, • Enzyme description and source: Recombinant Human Ketohexokinase, Met1Val298, with C terminal 6His tag (R&D Systems, 8177-HK). • Reagents: 200 μM ATP and 100 mM D-(−)-Fructose (Sigma F0127) as substrates. • Enzyme reaction buffer: 25 mM HEPES, 300 mM KCl, 10 mM MgCl2, 10 mM CaCl2, pH 7.0. • Control compound: KHK Inhibitor (Millipore-Sigma 420640) See Maryanoff, B. E., et al. 2011. ACS Med. Chem. Lett. 2, 538. • Assay: Transcreener Kinase ADP2 FP assay as described: https://www.bellbrooklabs.com/products/transcreener-hts-assays/kinase-assays/ • Assay parameters: 12-point dose response (n=2), 3-fold serial dilution, starting at 100 μM
KHK-A was added to the tested compounds (from 10 mM stock solution in 25 mM Tris pH 7.4), to a total volume 5 μl, and pre-incubated for 30 minutes at rt to ensure E*I complex formation. The reaction was then initiated by addition of an equal volume (5 μl) containing ATP and Fructose to give a resulting mix of 17.5 nM KHK-A, 0.3 mM ATP, 7 mM Fructose, 25 mM Tris (pH 7.4), 10 mM MgCl2, 10 mM CaCl2 and 50 mM KCl. Following 60 min at 30° C., reactions were quenched with 10 μl of stop/detect mix (40 mM HEPES (pH 7.5), 80 mM EDTA, 0,04% Brij-35, 8 nM ADP tracer and optimal concentration of ADP2 antibody), The plates were read on a PHERAstar PLUS after 1-hour room temperature equilibration. […]

Assay [2] deals with T2, KHK (Rattus norvegicus, UniProt Q02974).
T2 construct: from tissue; host or cells: whole animal, male Sprague Dawley rats (in vivo)
T2 sequence (Q02974 1-298): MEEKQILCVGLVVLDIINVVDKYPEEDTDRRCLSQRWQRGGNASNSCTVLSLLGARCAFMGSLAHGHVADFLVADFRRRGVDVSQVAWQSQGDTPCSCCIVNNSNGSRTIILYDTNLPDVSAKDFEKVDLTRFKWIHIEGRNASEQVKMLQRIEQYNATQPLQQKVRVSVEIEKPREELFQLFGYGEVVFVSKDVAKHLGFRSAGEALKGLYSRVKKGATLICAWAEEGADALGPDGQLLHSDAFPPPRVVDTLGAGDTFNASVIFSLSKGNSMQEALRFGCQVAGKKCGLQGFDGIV
Nature of the assay: Oral Fructose Tolerance Test (OFTT) in male Sprague Dawley rats. In kind it is in vivo. Conditions: 100 mg/kg oral; fructose bolus 2 g/kg 1 hour after compound; blood at 0.5, 1, 2 and 3 hours post challenge; FIG. 1. The protocol: FIG. 1: Graph showing the change in fructose levels from baseline in the control and Example 2 and 6 treated animals in the OFTT study.
The animals were fasted overnight, basal blood samples collected and a 100 mg/kg dose was orally administered of compounds example 2 or example 6. A fructose bolus (2 g/kg) was then given 1 hour after test compound administration and blood samples collected at 0.5, 1, 2 and 3 hours post fructose challenge. All the blood samples were centrifuged immediately and the separated plasma samples were stored at appropriate temperature for the fructose estimation. Plasma fructose concentration was measured by commercially available EnzyChrome fructose assay kit.

In the case of `C[C@H]1CCN1c1nc(N2C[C@@H]3[C@H](C2)[C@H]3CS(=O)O)cc(C(F)(F)F)n1` [Example 2, sodium((1R,5S,6S)-3-(2-((S)-2-methylazetidin-1-yl)-6-(trifluoromethyl)pyrimidin-4-yl)-3-azabicyclo[3.1.0]hexan-6-yl)methanesulfinate], the IC50 in assay [1] is 740 nM. For the same molecule, the “change in fructose levels from baseline (plasma fructose) versus the control group” value in assay [2] was “increase of fructose plasma levels”.

`Cc1c(N2C[C@@H]3[C@H](C2)[C@H]3CS(=O)O)nc(N2CC[C@@H]2C)nc1C(F)(F)F` [Example 6, sodium((1R,5S,6S)-3-(5-methyl-2-((S)-2-methylazetidin-1-yl)-6-(trifluoromethyl)pyrimidin-4-yl)-3-azabicyclo[3.1.0]hexan-6-yl)methanesulfinate]: the 50% inhibitory concentration (IC50) in assay [1] was determined as 78 nM. Moreover, the “change in fructose levels from baseline (plasma fructose) versus the control group” value in assay [2] was “increase of fructose plasma levels”.

The values above are taken from patent publication US20230135552A1, “Compounds Useful In Inhibiting Ketohexokinase And Methods Of Making And Using The Same” (Inorbit Therapeutics AB, priority 2020, published 2023).
